Assay results reported in ChEMBL document CHEMBL1156431, “15-deoxyspergualin primarily targets the trafficking of apicoplast proteins in Plasmodium falciparum” (J Biol Chem, 2007).
pIC50: −log10 of the molar value. Calls of active or inactive are those of the source. The calls are words filed in the database; no cut-off is given here.

Assays:
[1] = tested on: Plasmodium falciparum; assay: Inhibition of fatty acid synthesis in Plasmodium falciparum FCK2 trophozoites at 10 uM; assay type: functional, organism-based
[2] = tested on: Plasmodium falciparum; assay: TufA expression level in Plasmodium falciparum FCK2 first asexual cycle; assay type: functional, organism-based
[3] = tested on: Plasmodium falciparum; assay: Growth inhibition as apicoplast copy number of Plasmodium falciparum FCK2 at 100 nM by [3H]hypoxanthine uptake; assay type: functional
[4] = Inhibition of putrescine transporter-mediated [3H]putrescine transport in Plasmodium falciparum FCK2 infected human red blood cells
[5] = Inhibition of spermidine transporter-mediated [3H]spermidine transport in human red blood cells; assay type: cell-based
[6] = tested on: Plasmodium falciparum; assay: Antimalarial activity against Plasmodium falciparum FCK2 by [3H]hypoxanthine uptake; assay type: functional, organism-based
[7] = tested on: Plasmodium falciparum; assay: Antimalarial activity as reduced parasitaemia after 12 hrs against Plasmodium falciparum FCK2 second asexual cycle at 1 uM by [3H]hypoxanthine uptake; assay type: functional, organism-based
[8] = tested on: Plasmodium falciparum; assay: Actin expression level in Plasmodium falciparum FCK2; assay type: functional, organism-based
[9] = tested on: Plasmodium falciparum; assay: Inhibition of fatty acid synthesis in Plasmodium falciparum FCK2 trophozoites at 1 uM; assay type: functional, organism-based
[10] = Inhibition of putrescine transporter-mediated [3H]putrescine transport in human red blood cells; assay type: cell-based
[11] = tested on: Plasmodium falciparum; assay: Inhibition of protein synthesis in Plasmodium falciparum FCK2 by [35S]methionine uptake; assay type: functional, organism-based
[12] = tested on: Plasmodium falciparum; assay: Inhibition of fatty acid synthesis in late trophozoite Plasmodium falciparum FCK2 at 1 uM; assay type: functional, organism-based
[13] = tested on: Plasmodium falciparum; assay: Decreased processed NEAT protein FabG level in Plasmodium falciparum FCK2 first asexual cycle; assay type: functional, organism-based
[14] = tested on: Plasmodium falciparum; assay: Antimalarial activity against Plasmodium falciparum FCK2 infected human erythrocytes with exogenous spermidine; assay type: functional, organism-based
[15] = tested on: Plasmodium falciparum; assay: Inhibition of spermidine transporter-mediated [3H]spermidine transport in Plasmodium falciparum FCK2 infected human red blood cells at 1 mM
[16] = tested on: Plasmodium falciparum; assay: Growth inhibition of Plasmodium falciparum FCK2 as apicoplast copy numbers at 1 uM in [3H]hypoxanthine uptake; assay type: functional
[17] = tested on: Plasmodium falciparum; assay: Inhibition of fatty acid synthesis in Plasmodium falciparum FCK2 ring stage at 1 uM; assay type: functional, organism-based
[18] = tested on: Plasmodium falciparum; assay: Inhibition of fatty acid synthesis in Plasmodium falciparum FCK2 shizonts at 1 uM; assay type: functional, organism-based

SMILES: Oc1cc(Cl)ccc1Oc1ccc(Cl)cc1Cl
- Activity [1]: Active

SMILES: CCC[C@@H]1C[C@@H](C(=O)N[C@@H]([C@H]2O[C@H](SC)[C@H](O)[C@@H](O)[C@H]2O)[C@H](C)Cl)N(C)C1 [CLINDAMYCIN]
- Activity [2]: Active
- Activity [3]: 0.4

SMILES: N=C(N)NCCCCCCC(=O)NC(O)C(=O)NCCCCNCCCN (centres undefined) [GUSPERIMUS]
- pIC50 [4]: 2.95
- pIC50 [5]: 3.43
- pIC50 [6]: 6.83
- Activity [7]: inactive
- Activity [8]: inactive
- Activity [9]: inactive
- pIC50 [10]: 3.03
- pIC50 [11]: 3.35
- Activity [12]: inactive
- Activity [13]: Active
- Activity [14]: Active
- Activity [15]: inactive
- Activity [2]: inactive
- Activity [16]: 0.13
- Activity [17]: inactive
- Activity [18]: Active
